# Experimental data taken from patent US7696166B2, “Use of cyclosporin alkyne/alkene analogues for preventing or treating viral-induced disorders” (Albany Molecular Research, Inc., priority 2006, dated 2010).
# “Also recorded” adds a separate entry of the source.
# What was measured:
# [1] = biological target: cyclophilin A (Homo sapiens, UniProt P62937); conditions: background; cited from earlier work
# [2] = system: hepatitis C virus; conditions: Paeshuyse et al. 2005; cited from earlier work
# [3] = system: HIV-1; conditions: literature reports, background; cited from earlier work
# [4] = system: concanavalin A-stimulated murine splenocytes; assay: Concanavalin A (ConA)-stimulated murine splenocyte assay; type: cell-based, BALB/c mice; conditions: for IC50: novel cyclosporin alkyne analogue, ConA-stimulated murine splenocytes, [3H]thymidine incorporation
# Protocol: Male BALB/c mice, at 5 to 7 weeks of age, were sacrificed by CO2 inhalation. Spleens were removed and dissociated by pushing through a nylon cell strainer. The splenocytes were washed in RPMI 1640/5% fetal calf serum (FCS) and pelleted at 400×g. Red blood cells were then lysed by resuspending the cell pellet in ACK lysis buffer (150 mM NH4Cl, 1 mM KHCO3, 0.1 mM EDTA, 3 mL per spleen) for 10 min at room temperature. After pelleting at 400×g, the cells were washed by resuspending in RPMI 1640/5% FCS and repelleting. The cell pellet was resuspended in RPMI 1640/5% FCS and again passed through a cell strainer to remove cell aggregates. The cells were then counted and adjusted to 2×10^6 cells/ml in RPMI 1640/10% FCS/50 μM 2-mercaptoethanol. Cell viability was assessed by Trypan blue staining. Cyclosporin A or the test compound and two micrograms of concanavalin A were added to the wells of a 96 well plate, prior to the addition of 2×10^5 splenocytes. The cells were cultured in a 37° C. CO2 incubator for 2 days and then pulsed with 1 μCi of [^3H]thymidine for 6 hours. Cells were harvested onto filtermats with a TomTec 96 well plate harvester and lysed with H2O. The filtermat and scintillation fluid were sealed in a plastic sleeve. [^3H]thymidine incorporation was measured with a Wallac Trilux plate counter. Initial screens were done at a fixed value of 100 ng/ml test compound. IC50s were calculated from 7 point concentration-response curves using GraphPad software.
# [5] = cited from earlier work
# [6] = system: calcineurin; conditions: background; cited from earlier work
# cyclophilin A, sequence (P62937 whole entry): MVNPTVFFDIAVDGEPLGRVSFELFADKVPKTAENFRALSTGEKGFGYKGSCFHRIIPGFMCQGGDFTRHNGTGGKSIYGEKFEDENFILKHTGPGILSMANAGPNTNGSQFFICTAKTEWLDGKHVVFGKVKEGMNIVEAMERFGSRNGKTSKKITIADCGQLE
molecule,measurement,setting,value
C/C=C/C[C@@H](C)[C@@H](O)[C@H]1C(=O)N[C@@H](CC)C(=O)N(C)[C@H](C)C(=O)N(CC)[C@@H](C(C)C)C(=O)N[C@@H](C(C)C)C(=O)N(C)[C@@H](CC(C)C)C(=O)N[C@@H](C)C(=O)N[C@H](C)C(=O)N(C)[C@@H](CC(C)C)C(=O)N(C)[C@@H](CC(C)C)C(=O)N(C)[C@@H](C(C)C)C(=O)N1C [DEBIO-025],binding affinity for cyclophilin A,[1],potent binding affinity
same,inhibition of hepatitis C virus replication,[2],potent and selective inhibition
same,anti-HIV-1 activity,[3],effective for the treatment of HIV-1
"CCC1NC(=O)C(C(O)C(C)CC=CC#CBr)N(C)C(=O)C(C(C)C)N(C)C(=O)C(CC(C)C)N(C)C(=O)C(CC(C)C)N(C)C(=O)C(C)NC(=O)C(C)NC(=O)C(CC(C)C)N(C)C(=O)C(C(C)C)NC(=O)C(CC(C)C)N(C)C(=O)CN(C)C1=O (centres unmarked) [Example 15, cyclosporin alkynyl bromide]",IC50,[4],8 ng/mL
"CC[C@@H]1NC(=O)[C@H]([C@H](O)[C@H](C)C/C=C/C#CC2CC2)N(C)C(=O)[C@H](C(C)C)N(C)C(=O)[C@H](CC(C)C)N(C)C(=O)[C@H](CC(C)C)N(C)C(=O)[C@@H](C)NC(=O)[C@H](C)NC(=O)[C@H](CC(C)C)N(C)C(=O)[C@H](C(C)C)NC(=O)[C@H](CC(C)C)N(C)C(=O)CN(C)C1=O [Example 33, cyclosporin cyclopropyl alkyne]",potency in immunosuppression compared to cyclosporin A and ISATX247,[4]; FIG. 1 legend,enhanced or similar potency
same,IC50,[4],9 ng/mL
C/C=C/C[C@@H](C)[C@@H](O)[C@H]1C(=O)N[C@@H](CC)C(=O)N(C)CC(=O)N(C)[C@@H]([C@@H](C)CC)C(=O)N[C@@H](C(C)C)C(=O)N(C)[C@@H](CC(C)C)C(=O)N[C@@H](C)C(=O)N[C@H](C)C(=O)N(C)[C@@H](CC(C)C)C(=O)N(C)[C@@H](CC(C)C)C(=O)N(C)[C@@H](C(C)C)C(=O)N1C [SDZ NIM 811],immunosuppressive activity,"[5]; Mlynar et al. 1997, background",completely devoid of immunosuppressive activity; also recorded: none of the immunosuppressive activity
same,inhibition of calcineurin,[6],does not inhibit
same,anti-HIV-1 activity,[3],potent and selective anti-HIV-1 activity
CC#CC[C@@H](C)[C@@H](O)[C@H]1C(=O)N[C@@H](CC)C(=O)N(C)CC(=O)N(C)[C@@H](CC(C)C)C(=O)N[C@@H](C(C)C)C(=O)N(C)[C@@H](CC(C)C)C(=O)N[C@@H](C)C(=O)N[C@H](C)C(=O)N(C)[C@@H](CC(C)C)C(=O)N(C)[C@@H](CC(C)C)C(=O)N(C)[C@@H](C(C)C)C(=O)N1C [known cyclosporin alkyne],relative immunosuppressive activity compared to cyclosporin A,"[5]; Rich et al., J. Med. Chem. 33:999-1009 (1990)",10%
cyclosporin alkynyl iodide [Example 13],IC50,[4],1 ng/mL
